# Reference: PMC11763059, “GENI as an AMPK Activator Binds α and γ Subunits and Improves the Memory Dysfunction of Alzheimer’s Disease Mouse Models via Autophagy and Neuroprotection” (Antioxidants, 2025)
# Columns and labels:
# [1] = target: T1, AMPK-s2 (α subunit- D157A) (Rattus norvegicus, UniProt P54645+P80385, D168A); test: SPR analysis, AMPK mutant s2; format: binding
# T1 construct: His (N); made in house
# [2] = test system: T2, p53; test: Drug affinity responsive target stability (DARTS), p53; format: binding; details: 0.1–100 μM GENI, protein: pronase 100:1
# T2 construct: endogenous in cells
# Experimental: (§1) Cells were lysed by RIPA lysis buffer, and the protein concentration was measured. The lysate was divided into six groups. Before incubation with protease (protein: pronase = 50:1 w/w for PI3K and AMPK detection, 5:1 for MAPK detection, 100:1 for p53 detection) for 25 min in 25 °C, 0.1–100 μM GENI was added to lysates and incubated for 2 h at room temperature. The samples were mixed with loading buffer and then separated on 8% SDS-PAGE for immunoblotting analysis.
# [3] = test system: MAPK; test: Drug affinity responsive target stability (DARTS), MAPK; format: binding; details: 0.1–100 μM GENI, protein: pronase 5:1
# Experimental: as §1
# [4] = test system: AMPK; test: Drug affinity responsive target stability (DARTS), AMPK; format: binding; details: 0.1–100 μM GENI, protein: pronase 50:1
# Experimental: as §1
# [5] = test system: AMPK; test: Cellular thermal shift assay (CETSA) in PC12 cells, AMPK; format: binding; details: 10 μM GENI 2 h, 60 °C to 80 °C
# Experimental: (§2) In a 60 mm dish containing 5 mL of DMEM, 2 × 10^6 cells were added and incubated for 24 h. In each plate, 10 μM GENI was added and incubated for 2 h. Cells were harvested and heated at a temperature ranging from 60 °C to 80 °C for PC12 cell samples. We obtained a certain amount of cerebral cortex and hippocampus samples, which were added with PBS and ground. After centrifugation, the supernatant was used as a sample, and we measured the protein concentration with a BCA kit (CoWin Biotech Co., Ltd., Taizhou, Jiangsu, China). The protein of the cerebral cortex or hippocampus was incubated with 10 μM GENI at 37 °C for 2 h and heated from 65 °C to 100 °C for the cerebral cortex sample but 43 °C to 67 °C and 65 °C to 100 °C for the hippocampus sample. Equal volumes of supernatant heated at each temperature point for the control and treatment groups were used for Western blot analysis with the antibody for specific proteins.
# [6] = test system: AMPK; test: CETSA with cerebral cortex and hippocampus protein of mice; format: binding; details: cerebral cortex and hippocampus of mice brains
# Experimental: as §2
# [7] = test system: BV-2 cells; test: IL-6 ELISA and NO assay in BV-2 cell culture supernatant; format: cell-based, murine; details: LPS 1 μg/mL
# Experimental: ELISA analysis for NO and interleukin-6 (IL-6) was performed according to the manufacturer described in the material and methods section in Supplementary Information. […]
# for 15 seconds, 68 ℃ for 20 seconds. All results were normalized to GAPDH RNA levels, and relative mRNA transcript levels were calculated using the ΔΔCt formula.
# 1.2. Enzyme-linked immunosorbent assay
# BV-2 cells were treated with LPS (1 μg/mL) in the absence or presence of GENI (1, 3 and 10 μM). The cell supernatant was collected at different time points for proinflammatory mediator assay (8 h for IL-6 and 24 h for NO). NO production was quantified using an NO assay kit (S0021S, Beyotime, China), and IL-6 was detected using commercial ELISA kits (EM004, ExCell, China) according to the manufacturer’s instructions.
# For NO content evaluation, firstly, the NO assay kit was removed, and Griess Reagents I and II were warmed to room temperature. The standard substance was diluted with cell culture solution to 0, 1, 2, 5, 10, 20, 40, 60 and 100 μM. […] The absorbance was determined with a microplate reader (BioTek, California, USA) at 540 nm. […]
# 15.625 and 0 pg/mL for use, and blank holes were set. […] About 100 μL of termination solution was added to each hole, and we measured the OD450 value immediately after mixing with a microplate reader (BioTek, California, USA).
# T1 sequence (P54645 13-559 D168A limits assumed): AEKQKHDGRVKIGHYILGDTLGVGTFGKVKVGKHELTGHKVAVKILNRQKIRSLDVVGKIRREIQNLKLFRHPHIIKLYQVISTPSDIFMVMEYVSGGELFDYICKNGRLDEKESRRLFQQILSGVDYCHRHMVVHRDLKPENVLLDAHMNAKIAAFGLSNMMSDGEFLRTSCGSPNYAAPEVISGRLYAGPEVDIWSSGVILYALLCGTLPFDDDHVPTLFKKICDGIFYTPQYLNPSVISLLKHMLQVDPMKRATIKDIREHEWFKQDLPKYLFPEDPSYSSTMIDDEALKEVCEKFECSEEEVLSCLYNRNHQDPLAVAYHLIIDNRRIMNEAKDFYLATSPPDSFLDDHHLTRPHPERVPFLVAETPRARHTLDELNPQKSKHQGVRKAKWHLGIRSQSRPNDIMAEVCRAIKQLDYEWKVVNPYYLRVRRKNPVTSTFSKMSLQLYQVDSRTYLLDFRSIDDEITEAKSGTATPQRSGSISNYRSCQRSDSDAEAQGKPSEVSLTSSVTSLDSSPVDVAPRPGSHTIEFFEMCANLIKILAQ
# T1 sequence (P80386 whole entry partner): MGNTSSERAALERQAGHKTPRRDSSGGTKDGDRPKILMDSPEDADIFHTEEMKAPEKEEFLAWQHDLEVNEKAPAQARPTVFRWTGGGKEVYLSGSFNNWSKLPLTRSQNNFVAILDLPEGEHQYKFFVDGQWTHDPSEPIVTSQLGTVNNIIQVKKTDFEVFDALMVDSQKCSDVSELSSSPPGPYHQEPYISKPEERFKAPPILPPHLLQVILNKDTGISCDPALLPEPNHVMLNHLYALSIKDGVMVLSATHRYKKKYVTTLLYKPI
# T1 sequence (P80385 whole entry): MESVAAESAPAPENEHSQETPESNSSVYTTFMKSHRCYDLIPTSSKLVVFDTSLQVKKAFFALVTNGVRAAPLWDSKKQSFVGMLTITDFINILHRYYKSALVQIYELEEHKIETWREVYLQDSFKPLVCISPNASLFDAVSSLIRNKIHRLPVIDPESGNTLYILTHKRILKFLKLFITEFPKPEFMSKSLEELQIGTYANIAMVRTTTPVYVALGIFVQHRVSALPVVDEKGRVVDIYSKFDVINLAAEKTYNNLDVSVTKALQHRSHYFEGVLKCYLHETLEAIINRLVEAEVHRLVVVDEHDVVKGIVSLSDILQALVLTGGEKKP
structure (smiles),measurement,setting,value
"CC(C)CCOC(=O)C1=CO[C@@H](O[C@@H]2O[C@H](CO)[C@@H](O)[C@H](O)[C@H]2O)C2C(CO)=CCC12 (stereo partly drawn) [GENI, Geniposidic 4-isoamyl ester]",dose-dependent response in SPR,[1]; D157 replaced with A157,No significant dose-dependent response
same,kon,"[1]; SPR, association rate, read-out: Ka",9120 M⁻¹ s⁻¹
same,stability of p53 against pronase (DARTS),[2],no obvious effect
same,stability of MAPK against pronase (DARTS),[3],dramatically enhanced the stability
same,stability of AMPK against pronase (DARTS),[4],dramatically enhanced the stability
same,thermal stability of AMPK (CETSA),[5],sensibly increase the thermal stability
same,stability of AMPK proteins (CETSA),[6],enhanced the stability
same,secretion of LPS-stimulated pro-inflammatory IL-6,[7]; 8 h,significantly reduced
same,production of NO,[7]; 24 h,significantly reduced
